In the test the target is γ-secretase (Homo sapiens (Human), UniProt P49768). Description: Cellular γ-secretase assay (Aβ42 secretion, AlphaLisa). It is filed as cell-based. As to conditions: inhibition of Aβ42 secretion; human neuroglioma H4 cells overexpressing human APP695 Swedish double mutation; 24 hr compound incubation. How it is done:
Human neuroglioma H4 cells overexpressing human APP695 with the Swedish double mutation (K595N/M596L) were plated at 30,000 cells/well/100 μl in 96-well plates in IMDM media containing 10% FCS, 0.2 mg/l Hygromycin B and incubated at 37° C., 5% CO2.
3-4 hr post plating, compounds are a diluted in media and 50 μl is added as […] concentrate to achieve the final concentration. Compound incubation is performed for 24 hr. Final doses typically range from 4 μM down to 0.0013 μM in half-log steps resulting in an eight point dose response curve. Appropriate controls using vehicle only and reference compound were applied to this assay. The final concentration of Me2SO was 0.4%.
After incubation at 37° C., 5% CO2, the supernatant was subjected to quantification of secreted Aβ42 by the means of an AlphaLisa assay kit (Human Amyloid beta 1-42 Kit: Cat # AL203C, Perkin Elmer). 20 μl of the cell culture supernatant was transferred to an assay plate. Then 10 μl of a mixture of the AlphaLisa coupled capture antibody and the biotinylated detection antibody was added and incubated for 3 hours at room temperature while softly shaking the assay plate. After a further addition of 20 μl of the Donor beads the assay plate was incubated for 30 min at room temperature and constant shaking without exposure to direct light. The assay plate was then read on a Paradigm AlphaLisa Reader using the build-in program with excitation at 680 nm and emission at […]. The measured signals were then used to calculate IC50 values for inhibition of Aβ42 secretion by nonlinear regression fit analysis using XLfit 5.3 software (IDBS).
(In general: Bead proximity is the source of the signal in Alpha formats.)

Results on 13 compounds are retold here after patent US10669276B2, “Fused pyrimidine derivatives” (Hoffmann-La Roche Inc., priority 2016, dated 2020).

Usually EC50 stands for the concentration at which the effect is half-maximal.

For the compound `CNc1nc(Nc2ccc(-n3cnc(C)c3)c(F)c2)nc2c1C(C)(C)CN2c1ccc(F)cc1Cl` [Example 45, 7-(2-Chloro-4-fluorophenyl)-N2-(3-fluoro-4-(4-methyl-1H-imidazol-1-yl)phenyl)-N4,5,5-trimethyl-6,7-dihydro-5H-pyrrolo[2,3-d]pyrimidine-2,4-diamine], the midpoint of the response, the EC50, lay at 0.004 µM.
`CNc1nc(Nc2ccc(-c3nnc(C)o3)cc2)nc2c1C(C)(C)CN2c1ccc(F)cc1` [Example 47, 7-(4-Fluorophenyl)-N4,5,5-trimethyl-N2-(4-(5-methyl-1,3,4-oxadiazol-2-yl)phenyl)-6,7-dihydro-5H-pyrrolo[2,3-d]pyrimidine-2,4-diamine] showed an EC50 of 0.055 µM.
With `CNc1nc(Nc2ccc(-n3ncnc3C)c(F)c2)nc2c1C(C)(C)CN2c1ccc(F)cc1` [Example 5, N2-(3-Fluoro-4-(5-methyl-1H-1,2,4-triazol-1-yl)phenyl)-7-(4-fluorophenyl)-N4,5,5-trimethyl-6,7-dihydro-5H-pyrrolo[2,3-d]pyrimidine-2,4-diamine], it took 0.022 µM to reach a half-maximal effect (EC50). Against the preceding compound, the EC50 is about 2.5-fold lower.
With `CNc1nc(Nc2ccc(-n3cnc(C)c3)c(F)c2)nc2c1C(C)(C)CCN2c1ccc(F)cc1` [Example 37, N2-(3-Fluoro-4-(4-methyl-1H-imidazol-1-yl)phenyl)-8-(4-fluorophenyl)-N4,5,5-trimethyl-5,6,7,8-tetrahydropyrido[2,3-d]pyrimidine-2,4-diamine] the figure was 0.008 µM; with `CNc1nc(Nc2ccc(-n3cnc(C)n3)c(OC)c2)nc2c1C(C)(C)CN2C12CC(C(F)(F)F)(C1)C2` [Example 21, N2-(3-Methoxy-4-(3-methyl-1H-1,2,4-triazol-1-yl)phenyl)-N4,5,5-trimethyl-7-(3-(trifluoromethyl)bicyclo[1.1.1]pentan-1-yl)-6,7-dihydro-5H-pyrrolo[2,3-d]pyrimidine-2,4-diamine], 0.072 µM.
Next, `CNc1nc(Nc2ccc(-n3cnc(C)c3)c(F)c2)nc2c1CCN2c1ccc(F)cc1` [Example 38, N2-(3-Fluoro-4-(4-methyl-1H-imidazol-1-yl)phenyl)-7-(4-fluorophenyl)-N4-methyl-6,7-dihydro-5H-pyrrolo[2,3-d]pyrimidine-2,4-diamine]: 0.006 µM; `CNc1nc(Nc2ccc(-n3cnc(C)n3)c(OC)c2)nc2c1C(C)(C)CN2C1CC(F)(F)C1` [Example 17, 7-(3,3-Difluorocyclobutyl)-N2-(3-methoxy-4-(3-methyl-1H-1,2,4-triazol-1-yl)phenyl)-N4,5,5-trimethyl-6,7-dihydro-5H-pyrrolo[2,3-d]pyrimidine-2,4-diamine]: 0.019 µM; `CNc1nc(Nc2ccc(-c3nnc(C)o3)c(OC)c2)nc2c1C(C)(C)CN2c1ccc(F)cc1` [Example 27, 7-(4-Fluorophenyl)-N2-(3-methoxy-4-(5-methyl-1,3,4-oxadiazol-2-yl)phenyl)-N4,5,5-trimethyl-6,7-dihydro-5H-pyrrolo[2,3-d]pyrimidine-2,4-diamine]: 0.03 µM.
Next, `CNc1nc(Nc2ccc(-n3cnc(Cl)c3)c(OC)c2)nc2c1C(C)(C)CN2c1ccc(F)cc1` [Example 4, N2-(4-(4-Chloro-1H-imidazol-1-yl)-3-methoxyphenyl)-7-(4-fluorophenyl)-N4,5,5-trimethyl-6,7-dihydro-5H-pyrrolo[2,3-d]pyrimidine-2,4-diamine]: 0.007 µM; `CNc1nc(Nc2cnc(-n3cnc(C)c3)c(F)c2)nc2c1C(C)(C)CCN2c1ccc(F)cc1` [Example 36, N2-(5-Fluoro-6-(4-methyl-1H-imidazol-1-yl)pyridin-3-yl)-8-(4-fluorophenyl)-N4,5,5-trimethyl-5,6,7,8-tetrahydropyrido[2,3-d]pyrimidine-2,4-diamine]: 0.014 µM; `CNc1nc(Nc2ccc(-n3cnc(C)n3)c(F)c2)nc2c1C(C)(C)CN2c1ccc(F)cc1` [Example 3, N2-(3-Fluoro-4-(3-methyl-1H-1,2,4-triazol-1-yl)phenyl)-7-(4-fluorophenyl)-N4,5,5-trimethyl-6,7-dihydro-5H-pyrrolo[2,3-d]pyrimidine-2,4-diamine]: 0.016 µM.
Regarding `CNc1nc(Nc2cnc(-n3cnc(Cl)c3)c(OC)c2)nc2c1C(C)(C)CN2c1ccc(F)cc1` [Example 6, N2-(6-(4-Chloro-1H-imidazol-1-yl)-5-methoxypyridin-3-yl)-7-(4-fluorophenyl)-N4,5,5-trimethyl-6,7-dihydro-5H-pyrrolo[2,3-d]pyrimidine-2,4-diamine], it took 0.009 µM to reach a half-maximal effect (EC50).
As to `CNc1nc(Nc2cnc(-n3cnc(Cl)c3)c(OC)c2)nc2c1C(C)(C)CN2c1ccc(F)c(F)c1` [Example 14, N2-(6-(4-Chloro-1H-imidazol-1-yl)-5-methoxypyridin-3-yl)-7-(3,4-difluorophenyl)-N4,5,5-trimethyl-6,7-dihydro-5H-pyrrolo[2,3-d]pyrimidine-2,4-diamine], the midpoint of the response, the EC50, lay at 0.01 µM.
